Marks after values point to notes of the source that are not given here.
System: male rats
Test: Plasma metabolite profiling (GC-MS, LC-MS, SPE-LC-MS) in male rats dosed once daily over 28 days (OECD 407)
Type: in vivo, rat
Conditions: high dose; for Mannose: Table 15c
How it was run: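 Metabolites were measured by GC-MS (derivatised) and reversed-phase LC-MS, with steroids by online SPE-LC-MS, in plasma drawn from fasted rats on days 7, 14 and 28 of once-daily dosing (5/sex/group). Values are ratios versus sex-matched untreated controls, normalized to pool samples, with Welch-test p-values.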

Structure (SMILES): C[C@]12CCC(=O)C=C1CC[C@@H]1[C@@H]2CC[C@@]2(C)[C@H]1CC[C@]2(C)O [17-alpha-Methyltestosterone]
- Mannose (m7, male rats): 1.14 *
- 3,4-Dihydroxyphenylacetic acid (DOPAC) (m7, male rats, Table 15d): 0.6 *
- 18-Hydroxy-11-deoxycorticosterone (m7, male rats, Table 15d): 0.35 *
- Glycerol phosphate, lipid fraction (m7, male rats, Table 15d): 0.28 *
- Homovanillic acid (HVA) (m7, male rats, Table 15d): 0.74 *
- Lysophosphatidylcholine (C18:1) (m7, male rats, Table 15d): 0.66 *
- Lysophosphatidylethanolamine (C22:5) (m7, male rats, Table 15d): 0.77 *
- Phosphate, lipid fraction (m7, male rats, Table 15d): 0.51 *
- Phosphatidylcholine (C18:0,C18:1) (m7, male rats, Table 15d): 0.78
- Sphingomyelin (d18:1, C16:0) (m7, male rats, Table 15d): 0.34 *
- Sphingomyelin (d18:1,C23:0) (m7, male rats, Table 15d): 0.49 *
- Sphingomyelin (d18:1,C24:0) (m7, male rats, Table 15d): 0.46 *
- Sphingomyelin (d18:2,C18:0) (m7, male rats, Table 15d): 0.4
- TAG No 02 (m7, male rats, Table 15d): 0.41 *
- myo-Inositol, lipid fraction (m7, male rats, Table 15d): 0.4 *
- Cholesterol (m7, Table 14b): 0.29
- Choline plasmalogen No 02 (m7, Table 14b): 0.55
- Lignoceric acid (C24:0) (m7, Table 14b): 0.28
- Sphingomyelin (d18:1, C16:0) (m7, Table 14b): 0.34
- Sphingomyelin (d18:2, C16:0) (m7, Table 14b): 0.39
- erythro-Sphingosine (d18:1) (m7, Table 14b): 0.17
- Mannose (m14, male rats): 1.03
- 3,4-Dihydroxyphenylacetic acid (DOPAC) (m14, male rats, Table 15d): 0.69 *
- 18-Hydroxy-11-deoxycorticosterone (m14, male rats, Table 15d): 0.94
- Glycerol phosphate, lipid fraction (m14, male rats, Table 15d): 0.63 *
- Homovanillic acid (HVA) (m14, male rats, Table 15d): 0.68 *
- Lysophosphatidylcholine (C18:1) (m14, male rats, Table 15d): 0.78 *
- Lysophosphatidylethanolamine (C22:5) (m14, male rats, Table 15d): 0.88 *
- Phosphate, lipid fraction (m14, male rats, Table 15d): 0.64 *
- Phosphatidylcholine (C18:0,C18:1) (m14, male rats, Table 15d): 0.69 *
- Sphingomyelin (d18:1, C16:0) (m14, male rats, Table 15d): 0.28 *
- Sphingomyelin (d18:1,C23:0) (m14, male rats, Table 15d): 0.76
- Sphingomyelin (d18:1,C24:0) (m14, male rats, Table 15d): 0.47 *
- Sphingomyelin (d18:2,C18:0) (m14, male rats, Table 15d): 0.31 *
- TAG No 02 (m14, male rats, Table 15d): 0.3 *
- myo-Inositol, lipid fraction (m14, male rats, Table 15d): 0.49 *
- Cholesterol (m14, Table 14b): 0.41
- Choline plasmalogen No 02 (m14, Table 14b): 0.64
- Lignoceric acid (C24:0) (m14, Table 14b): 0.39
- Sphingomyelin (d18:1, C16:0) (m14, Table 14b): 0.28
- Sphingomyelin (d18:2, C16:0) (m14, Table 14b): 0.38
- erythro-Sphingosine (d18:1) (m14, Table 14b): 0.21
- Mannose (m28, male rats): 1.2 *
- 3,4-Dihydroxyphenylacetic acid (DOPAC) (m28, male rats, Table 15d): 0.74
- 18-Hydroxy-11-deoxycorticosterone (m28, male rats, Table 15d): 0.55 *
- Glycerol phosphate, lipid fraction (m28, male rats, Table 15d): 0.47 *
- Homovanillic acid (HVA) (m28, male rats, Table 15d): 0.92
- Lysophosphatidylcholine (C18:1) (m28, male rats, Table 15d): 0.73 *
- Lysophosphatidylethanolamine (C22:5) (m28, male rats, Table 15d): 0.77 *
- Phosphate, lipid fraction (m28, male rats, Table 15d): 0.6 *
- Phosphatidylcholine (C18:0,C18:1) (m28, male rats, Table 15d): 0.7 *
- Sphingomyelin (d18:1, C16:0) (m28, male rats, Table 15d): 0.27 *
- Sphingomyelin (d18:1,C23:0) (m28, male rats, Table 15d): 0.48 *
- Sphingomyelin (d18:1,C24:0) (m28, male rats, Table 15d): 0.44 *
- Sphingomyelin (d18:2,C18:0) (m28, male rats, Table 15d): 0.36 *
- TAG No 02 (m28, male rats, Table 15d): 0.34 *
- myo-Inositol, lipid fraction (m28, male rats, Table 15d): 0.51 *
- Cholesterol (m28, Table 14b): 0.39
- Choline plasmalogen No 02 (m28, Table 14b): 0.49
- Lignoceric acid (C24:0) (m28, Table 14b): 0.19
- Sphingomyelin (d18:1, C16:0) (m28, Table 14b): 0.27
- Sphingomyelin (d18:2, C16:0) (m28, Table 14b): 0.37
- erythro-Sphingosine (d18:1) (m28, Table 14b): 0.19

Reference: patent US20150010928A1, “MEANS AND METHODS FOR ASSESSING AN ENDOCRINE DISEASE OR DISORDER” (priority 2012, published 2015)
